This passage reports IC50 results from patent US9944624B2, “Substituted amino triazoles useful as human chitinase inhibitors” (OncoArendi Therapeutics S.A., priority 2015, dated 2018).

Sequence of recombinant human AMCase (Q9BZP6 22-476): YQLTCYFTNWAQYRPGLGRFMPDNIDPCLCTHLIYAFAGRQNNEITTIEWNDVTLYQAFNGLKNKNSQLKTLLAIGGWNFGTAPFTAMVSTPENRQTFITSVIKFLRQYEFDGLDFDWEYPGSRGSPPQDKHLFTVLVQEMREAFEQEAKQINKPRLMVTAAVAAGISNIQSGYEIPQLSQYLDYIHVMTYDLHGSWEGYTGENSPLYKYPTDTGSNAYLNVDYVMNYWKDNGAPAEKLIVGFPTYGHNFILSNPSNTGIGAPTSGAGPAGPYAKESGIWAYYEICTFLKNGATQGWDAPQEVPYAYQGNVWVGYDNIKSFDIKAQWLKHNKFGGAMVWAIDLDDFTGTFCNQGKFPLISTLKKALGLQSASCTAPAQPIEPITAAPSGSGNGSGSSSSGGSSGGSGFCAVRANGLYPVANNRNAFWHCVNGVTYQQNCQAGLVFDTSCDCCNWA

For one experiment, the target named is recombinant human CHIT1 (Homo sapiens (Human), UniProt Q13231). The experiment can be described thus: Human CHIT1 activity assay (fluorescent 4MU substrate). It counts as biochemical. The following applies: citrate buffer pH 5.2, 37° C., 60 minutes; substrate 4-methylumbelliferyl β-D-N,N′,N″-triacetylchitotriose; read-out: Activity on hCHIT1, IC50.
Sequence of recombinant human CHIT1 (Q13231 22-466): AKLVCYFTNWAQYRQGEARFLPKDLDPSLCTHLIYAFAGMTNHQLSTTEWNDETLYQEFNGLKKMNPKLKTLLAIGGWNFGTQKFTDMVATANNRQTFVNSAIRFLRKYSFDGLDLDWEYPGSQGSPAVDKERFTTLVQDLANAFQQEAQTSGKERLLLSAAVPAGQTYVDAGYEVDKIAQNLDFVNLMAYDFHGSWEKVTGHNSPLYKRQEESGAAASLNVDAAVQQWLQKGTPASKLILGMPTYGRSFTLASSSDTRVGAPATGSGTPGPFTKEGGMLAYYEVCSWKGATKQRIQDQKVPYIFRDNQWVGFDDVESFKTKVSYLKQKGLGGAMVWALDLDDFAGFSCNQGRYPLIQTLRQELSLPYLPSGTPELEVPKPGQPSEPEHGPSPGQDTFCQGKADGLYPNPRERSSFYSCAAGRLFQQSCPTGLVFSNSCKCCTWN
With `Nc1nnc(N2CCC(N3CCOCC3Cc3ccc(Cl)cc3)CC2)[nH]1` (stereo not shown) [Example 2, 5-(4-(3-(4-chlorobenzyl)morpholino)piperidin-1-yl)-4H-1,2,4-triazol-3-amine], the half-inhibitory concentration (IC50) lay within 100 to 1000 nM. Same read-out and setting: the result for `Nc1nnc(N2CCC(N3CCCCC3C(O)c3ccc(Cl)cc3)CC2)[nH]1` (stereo not shown) [Example 21, (1′-(5-amino-4H-1,2,4-triazol-3-yl)-[1,4′-bipiperidin]-2-yl)(4-chlorophenyl)methanol] reads 10000 to 100000 nM. With `CO[C@H]1CN(C2CCN(c3nnc(N)[nH]3)CC2)[C@H]1Cc1ccc(Cl)cc1` [Example 22, 5-(4-((2S,3S)-2-(4-chlorobenzyl)-3-methoxyazetidin-1-yl)piperidin-1-yl)-4H-1,2,4-triazol-3-amine], the IC50 was in the range of 100 to 1000 nM. The same measure, in the same setting: the result for `Nc1nnc(N2CCC(N3C[C@@H](F)[C@@H]3Cc3ccc(Cl)cc3)CC2)[nH]1` [Example 23, 5-(4-((2S,3R)-2-(4-chlorobenzyl)-3-fluoroazetidin-1-yl)piperidin-1-yl)-4H-1,2,4-triazol-3-amine] reads 10000 to 100000 nM; that for `Nc1nnc(N2CCC(N3CCNC[C@@H]3Cc3ccc(Cl)cc3)CC2)[nH]1` [Example 26, (S)-5-(4-(2-(4-chlorobenzyl)piperazin-1-yl)piperidin-1-yl)-4H-1,2,4-triazol-3-amine], 1000 to 10000 nM; that for `C[C@H]1CN(C2CCN(c3nnc(N)[nH]3)CC2)[C@@H](Cc2ccc(Cl)cc2)CN1C` [Example 27, 5-(4-((2S,5S)-2-(4-chlorobenzyl)-4,5-dimethylpiperazin-1-yl)piperidin-1-yl)-4H-1,2,4-triazol-3-amine], 1000 to 10000 nM. On the same count and under the same terms, the result for `CC(C)CN1CCN(C2CCN(c3nnc(N)[nH]3)CC2)[C@@H](Cc2ccc(Cl)cc2)C1` [Example 29, (S)-5-(4-(2-(4-chlorobenzyl)-4-isobutylpiperazin-1-yl)piperidin-1-yl)-4H-1,2,4-triazol-3-amine] reads 10000 to 100000 nM; that for `CN1C[C@H](Cc2ccc(Cl)cc2)N(C2CCN(c3nnc(N)[nH]3)CC2)C[C@@H]1Cc1ccc(Cl)cc1` [Example 31, 5-(4-((2S,5S)-2,5-bis(4-chlorobenzyl)-4-methylpiperazin-1-yl)piperidin-1-yl)-4H-1,2,4-triazol-3-amine], 1000 to 10000 nM. The same measure, in the same setting: the result for `CN1C[C@H](Cc2ccc(Cl)cc2)N(C2CCN(c3nnc(N)[nH]3)CC2)C[C@@H]1CC1CCCCC1` [Example 32, 5-(4-((2S,5S)-2-(4-chlorobenzyl)-5-(cyclohexylmethyl)-4-methylpiperazin-1-yl)piperidin-1-yl)-4H-1,2,4-triazol-3-amine] reads 1000 to 10000 nM; that for `CC(C)C[C@H]1CN(C2CCN(c3nnc(N)[nH]3)CC2)[C@@H](Cc2ccc(Cl)cc2)CN1C` [Example 33, 5-(4-((2S,5S)-2-(4-chlorobenzyl)-5-isobutyl-4-methylpiperazin-1-yl)piperidin-1-yl)-4H-1,2,4-triazol-3-amine], 1000 to 10000 nM; that for `CO[C@H]1C[C@H](Cc2ccc(Cl)cc2)N(C2CCN(c3nnc(N)[nH]3)CC2)C1` [Example 46, 5-(4-((2S,4S)-2-(4-chlorobenzyl)-4-methoxypyrrolidin-1-yl)piperidin-1-yl)-4H-1,2,4-triazol-3-amine], less than 100 nM.

Take `CC1(O)C[C@H](Cc2ccc(Cl)cc2)N(C2CCN(c3nnc(N)[nH]3)CC2)C1` (stereo partly drawn) [Example 48, (5S)-1-(1-(5-amino-4H-1,2,4-triazol-3-yl)piperidin-4-yl)-5-(4-chlorobenzyl)-3-methylpyrrolidin-3-ol]: the IC50 lay in the range of 100 to 1000 nM.

As for `CO[C@@H]1C[C@H](Cc2ccc(Cl)cc2)N(C2CCN(c3n[nH]c(N)n3)CC2)C1` [Example 51, 3-(4-((2S,4R)-2-(4-chlorobenzyl)-4-methoxypyrrolidin-1-yl)piperidin-1-yl)-1H-1,2,4-triazol-5-amine], the IC50 is less than 100 nM.

Another experiment addresses recombinant human AMCase (Homo sapiens (Human), UniProt Q9BZP6). The experiment can be described thus: Human AMCase activity assay (fluorescent 4MU substrate). It counts as biochemical. The following applies: citrate buffer pH 5.2, 37° C., 60 minutes; substrate 4-methylumbelliferyl B-D-N,N′-diacetylchitobioside hydrate; read-out: Activity on hAMCase, IC50.
In the case of `Nc1nnc(N2CCC(N3CCOC[C@@H]3Cc3ccc(Cl)cc3)CC2)[nH]1` [Example 1, (S)-5-(4-(3-(4-chlorobenzyl)morpholino)piperidin-1-yl)-4H-1,2,4-triazol-3-amine], the half-inhibitory concentration (IC50) was less than 100 nM. Still for that read-out and setting: the same measure for `Nc1nnc(N2CCC(N3CCOC[C@@H]3Cc3ccc(Br)cc3)CC2)[nH]1` [Example 3, (S)-5-(4-(3-(4-bromobenzyl)morpholino)piperidin-1-yl)-4H-1,2,4-triazol-3-amine]: less than 100 nM; for `CCOC[C@H]1CN(C2CCN(c3nnc(N)[nH]3)CC2)[C@@H](Cc2ccc(Cl)cc2)CO1` [Example 11, 5-(4-((2R,5S)-5-(4-chlorobenzyl)-2-(ethoxymethyl)morpholino)piperidin-1-yl)-4H-1,2,4-triazol-3-amine]: less than 100 nM; for `COC(C)(C)[C@H]1CN(C2CCN(c3nnc(N)[nH]3)CC2)[C@@H](Cc2ccc(Cl)cc2)CO1` [Example 14, 5-(4-((2R,5S)-5-(4-chlorobenzyl)-2-(2-methoxypropan-2-yl)morpholino)piperidin-1-yl)-4H-1,2,4-triazol-3-amine]: less than 100 nM. In the case of `Nc1nnc(N2CCC(N3CCCC[C@@H]3Cc3ccc(Cl)cc3)CC2)[nH]1` [Example 15, (R)-5-(2-(4-chlorobenzyl)-[1,4′-bipiperidin]-1′-yl)-4H-1,2,4-triazol-3-amine], the IC50 is less than 100 nM. Same read-out and setting: the result for `CCOC(=O)C1CC[C@H](Cc2ccc(Cl)cc2)N(C2CCN(c3nnc(N)[nH]3)CC2)C1` (stereo partly drawn) [Example 16, ethyl (6R)-1′-(5-amino-4H-1,2,4-triazol-3-yl)-6-(4-chlorobenzyl)-[1,4′-bipiperidine]-3-carboxylate] reads less than 100 nM; that for `Nc1nnc(N2CCC(N3CC(C(=O)O)CC[C@@H]3Cc3ccc(Cl)cc3)CC2)[nH]1` (stereo partly drawn) [Example 17, (6R)-1′-(5-amino-4H-1,2,4-triazol-3-yl)-6-(4-chlorobenzyl)-[1,4′-bipiperidine]-3-carboxylic acid], less than 100 nM. On to `CC1(C(=O)O)CC[C@H](Cc2ccc(Cl)cc2)N(C2CCN(c3nnc(N)[nH]3)CC2)C1` (stereo partly drawn) [Example 18, (6R)-1′-(5-amino-4H-1,2,4-triazol-3-yl)-6-(4-chlorobenzyl)-3-methyl-[1,4′-bipiperidine]-3-carboxylic acid], for which the IC50 was less than 100 nM.

`CN1C[C@H](Cc2ccc(Cl)cc2)N(C2CCN(c3nnc(N)[nH]3)CC2)C[C@@H]1Cc1ccc(Cl)cc1` [Example 31, 5-(4-((2S,5S)-2,5-bis(4-chlorobenzyl)-4-methylpiperazin-1-yl)piperidin-1-yl)-4H-1,2,4-triazol-3-amine]: the IC50 is less than 100 nM. Same read-out and setting: the same measure for `CN1C[C@H](Cc2ccc(Cl)cc2)N(C2CCN(c3nnc(N)[nH]3)CC2)C[C@@H]1CC1CCCCC1` [Example 32, 5-(4-((2S,5S)-2-(4-chlorobenzyl)-5-(cyclohexylmethyl)-4-methylpiperazin-1-yl)piperidin-1-yl)-4H-1,2,4-triazol-3-amine]: less than 100 nM. Consider `CC(C)C[C@H]1CN(C2CCN(c3nnc(N)[nH]3)CC2)[C@@H](Cc2ccc(Cl)cc2)CN1C` [Example 33, 5-(4-((2S,5S)-2-(4-chlorobenzyl)-5-isobutyl-4-methylpiperazin-1-yl)piperidin-1-yl)-4H-1,2,4-triazol-3-amine], for which the IC50 is less than 100 nM. Same read-out and setting: the result for `COC(=O)CN1C[C@H](Cc2ccc(Cl)cc2)N(C2CCN(c3nnc(N)[nH]3)CC2)C[C@@H]1C` [Example 40, methyl 2-((2S,5S)-4-(1-(5-amino-4H-1,2,4-triazol-3-yl)piperidin-4-yl)-5-(4-chlorobenzyl)-2-methylpiperazin-1-yl)acetate] reads less than 100 nM; that for `C[C@H]1CN(C2CCN(c3nnc(N)[nH]3)CC2)[C@@H](Cc2ccc(Cl)cc2)CN1CC(=O)O` [Example 41, 2-((2S,5S)-4-(1-(5-amino-4H-1,2,4-triazol-3-yl)piperidin-4-yl)-5-(4-chlorobenzyl)-2-methylpiperazin-1-yl)acetic acid], less than 100 nM; that for `CC1(O)C[C@H](Cc2ccc(Cl)cc2)N(C2CCN(c3nnc(N)[nH]3)CC2)C1` (stereo partly drawn) [Example 48, (5S)-1-(1-(5-amino-4H-1,2,4-triazol-3-yl)piperidin-4-yl)-5-(4-chlorobenzyl)-3-methylpyrrolidin-3-ol], less than 100 nM. On the same count and under the same terms, the same measure for `Nc1nnc(N2CCC(N3C[C@@H]4CCCN4C[C@@H]3Cc3ccc(Cl)cc3)CC2)[nH]1` [Example 49, 5-(4-((3S,8aS)-3-(4-chlorobenzyl)hexahydropyrrolo[1,2-a]pyrazin-2(1H)-yl)piperidin-1-yl)-4H-1,2,4-triazol-3-amine]: less than 100 nM.
